Here are results for four compounds from ChEMBL document CHEMBL2157896, “Engineering pH-gated transitions for selective and efficient double-strand DNA photocleavage in hypoxic tumors” (J Med Chem, 2011).

Data set [1] has as its system A-375. The experiment in a line: Toxicity in human A375 cells at <10 uM under dark condition incubated for 72 hrs by MTT assay. The class given is cell-based. Particulars: a-375, 72 h.
The subject of data set [2] is Nucleic Acid. As to the kind of experiment: Induction of DNA cleavage in Escherichia coli pBR322 at 10 uM in pH 8.0 phosphate buffer measured after of UV irradiation. The class given is nucleic-acid assay.
Data set [3] deals with Nucleic Acid. The experiment in a line: Induction of DNA cleavage in Escherichia coli pBR322 at 10 uM in pH 7.0 phosphate buffer measured after of UV irradiation. The class given is nucleic-acid assay.
Data set [4] concerns A-375. As to the kind of experiment: Drug uptake in human A375 cells at 30 uM incubated for 30 mins by differential interference contrast microscopy. The class given is ADME, cell-based. The settings on record: a-375, 0.5 h.
The test system of data set [5] is A-375. The experiment in a line: Drug uptake in human A375 cells at 30 uM incubated for 30 mins by fluorescence microscopy. The class given is ADME, cell-based. The settings on record: a-375, 0.5 h.
The test system of data set [6] is Nucleic Acid. The experiment in a line: Induction of DNA cleavage in Escherichia coli pBR322 at 5 uM in pH 7.0 phosphate buffer measured after of UV irradiation. The class given is nucleic-acid assay.
In data set [7] the test system is A-375. The experiment in a line: Phototoxicity in human A375 cells incubated for 72 hrs exposed to UV light for 10 mins by MTT assay. The class given is functional. A general note: Formazan colour is commonly taken as a measure of viable cells.
In data set [8] the test system is Nucleic Acid. The experiment in a line: Induction of DNA cleavage in Escherichia coli pBR322 at 5 uM in pH 6.0 phosphate buffer measured after of UV irradiation. The class given is nucleic-acid assay.
The test system of data set [9] is Nucleic Acid. The experiment in a line: Induction of DNA damage in Escherichia coli pBR322 at 5 uM in pH 6.0 phosphate buffer measured after of UV irradiation. The class given is nucleic-acid assay.
Data set [10] deals with Nucleic Acid. The experiment in a line: Induction of DNA cleavage in Escherichia coli pBR322 assessed as form3/form2 ratio after UV irradiation. The class given is nucleic-acid assay.
Data set [11] relates to Nucleic Acid. As to the kind of experiment: Induction of photochemical DNA cleavage in Escherichia coli pBR322 assessed as disappearance of supercoiled DNA at 15 uM in pH 7.0 phosphate buffer after 10 mins of UV irradiation. The class given is nucleic-acid assay.
The subject of data set [12] is Nucleic Acid. The experiment in a line: Induction of DNA cleavage in Escherichia coli pBR322 assessed as form3/form2 ratio at 15 uM at pH 6 to 9 after 10 mins of UV irradiation. The class given is nucleic-acid assay.
The test system of data set [13] is Nucleic Acid. The experiment in a line: Induction of DNA cleavage in Escherichia coli pBR322 at 10 uM in pH 6.0 phosphate buffer measured after of UV irradiation. The class given is nucleic-acid assay.
For data set [14], the system named is Nucleic Acid. As to the kind of experiment: Induction of photochemical DNA cleavage in Escherichia coli pBR322 assessed as supercoiled DNA level at 10 uM in pH 6.0 phosphate buffer measured after UV irradiation. The class given is nucleic-acid assay.
For data set [15], the system named is Nucleic Acid. The experiment in a line: Induction of photochemical DNA cleavage in Escherichia coli pBR322 assessed as disappearance of supercoiled DNA at 15 uM in pH 6.0 phosphate buffer after 10 mins of UV irradiation. The class given is nucleic-acid assay.
For data set [16], the system named is Nucleic Acid. As to the kind of experiment: Induction of photochemical DNA cleavage in Escherichia coli pBR322 assessed as disappearance of supercoiled DNA at 15 uM in pH 8.0 phosphate buffer after 10 mins of UV irradiation. The class given is nucleic-acid assay.
Data set [17] has as its system Nucleic Acid. As to the kind of experiment: Induction of DNA cleavage in Escherichia coli pBR322 at 15 uM in pH 6.0 phosphate buffer measured after of UV irradiation. The class given is nucleic-acid assay.
Data set [18] deals with Nucleic Acid. As to the kind of experiment: Induction of photochemical DNA cleavage in Escherichia coli pBR322 assessed as supercoiled DNA level at 15 uM in pH 6.0 phosphate buffer measured after 30 secs of UV irradiation. The class given is nucleic-acid assay.

The structures appear in SMILES notation. The source made the active and inactive calls. The rule behind the calls is not given here. Where only a bound is given, the exact number is not on record here.

On to `NCCCC[C@H](N)C(=O)NCCCC[C@H](N)C(=O)Nc1ccc(C#Cc2c(F)c(F)nc(F)c2F)c(C#Cc2c(F)c(F)nc(F)c2F)c1.O=C(O)C(F)(F)F`, for which the figures for the Activity result in the data set on A-375 [1], in the data set on Nucleic Acid [8] and in the data set on Nucleic Acid [9] were “Non-toxic”, 17% and 92%, respectively. In addition, the outcome with Nucleic Acid [2] and in the data set with Nucleic Acid [3] was Active. For the same compound, the Drug uptake entry in the data set with A-375 [4] and in the data set on A-375 [5] was “Active” each time. Moreover, the outcome in the data set on Nucleic Acid [6] was inactive. The CC50 result in the data set with A-375 [7] is “Active”.

As to `NCCCC[C@H](NC(=O)[C@@H](N)CCCCN)C(=O)Nc1ccc(C#Cc2c(F)c(F)nc(F)c2F)c(C#Cc2c(F)c(F)nc(F)c2F)c1.O=C(O)C(F)(F)F`, the Activity result was “Non-toxic” with A-375 [1], 13% with Nucleic Acid [8] and 77% in the data set with Nucleic Acid [9]. Moreover, the result in the data set on Nucleic Acid [2] and with Nucleic Acid [3] was Active. The Drug uptake result in the data set on A-375 [4] and with A-375 [5] was “Active” throughout. Besides, the result in the data set with Nucleic Acid [6] was inactive. Besides, the CC50 result with A-375 [7] is “Active”.

As for `CCN[C@H]1CO[C@@H](O[C@H]2[C@H](O[C@H]3C#C/C=C\C#C[C@]4(O)CC(=O)C(NC(=O)OC)=C3/C4=C\CSSSC)O[C@H](C)[C@@H](NO[C@H]3C[C@H](O)[C@H](SC(=O)c4c(C)c(I)c(O[C@@H]5O[C@@H](C)[C@H](O)[C@@H](OC)[C@H]5O)c(OC)c4OC)[C@@H](C)O3)[C@@H]2O)C[C@@H]1OC`, the result in the data set with Nucleic Acid [10] was Active.

With `NCCCC[C@H](NC(=O)[C@@H](N)CCCCN)C(=O)Nc1ccc(C#Cc2c(F)c(F)nc(F)c2F)cc1.O=C(O)C(F)(F)F`, the outcome in the data set with Nucleic Acid [11], in the data set with Nucleic Acid [15], with Nucleic Acid [16] and in the data set with Nucleic Acid [18] was Active. In addition, the Ratio in the data set with Nucleic Acid [12] amounted to 1. For the same compound, the Activity result is “Non-toxic” in the data set on A-375 [1]; 136% in the data set with Nucleic Acid [13]; above 61% in the data set with Nucleic Acid [3]; 155% in the data set with Nucleic Acid [17]; 32% in the data set on Nucleic Acid [8]. Further, the outcome in the data set on Nucleic Acid [14] was inactive. For the same compound, the Drug uptake result with A-375 [4] and in the data set with A-375 [5] was “Active” throughout. The CC50 entry in the data set on A-375 [7] was “Active”.
